Results as given in patent US4724233A, “Therapeutical application of phosphonylmethoxyalkyl adenines” (Stichting Rega VZW, priority 1985, dated 1988).
≈ marks a conversion by molar mass, not a printed value. Where two headings read alike, the source gives them in different places.

Columns and labels:
[1] = tested on: HSV-1 (strain) TK^- C1101; experiment: inhibition of cytopathic effect of HSV-1 TK- strain C1101; assay type: cell-based, herpes simplex virus type 1; conditions: Human alphaherpesvirus 1, PRK, read-out: MIC50
Sindbis = experiment: inhibition of cytopathic effect of Sindbis; assay type: cell-based; conditions: Table 3; Vero B cells; read-out: MIC50
Vaccinia = experiment: microbe, parasite or virus in culture; assay type: cell-based; conditions: Orthopoxvirus vaccinia, PRK, read-out: MIC50
Herpes simplex I (KOS) = experiment: inhibition of cytopathic effect of herpes simplex 1 (KOS); assay type: cell-based, herpes simplex virus type 1; conditions: PRK cells; for EC50: Human alphaherpesvirus 1, read-out: MIC50
HSV-2 (strain) 196 = experiment: inhibition of cytopathic effect of HSV-2 strain 196; assay type: cell-based, herpes simplex virus type 2; conditions: Human alphaherpesvirus 2; Table 4; HSV-2 196, PRK cells; read-out: MIC50
Measles = experiment: inhibition of cytopathic effect of measles; assay type: cell-based; conditions: Measles morbillivirus; Table 3; Vero Flow cells; read-out: MIC50
Coxsackie B4 = experiment: inhibition of cytopathic effect of Coxsackie B4; assay type: cell-based; conditions: Enterovirus B, B4; Table 3; Vero B, HeLa cells; read-out: MIC50
[2] = antimetabolic activity: incorporation of 3H-labeled precursors into primary rabbit kidney cells; conditions: rabbit, prk cells
Reovirus = experiment: inhibition of cytopathic effect of reovirus; assay type: cell-based; conditions: Reovirus sp.; Table 3; Vero B cells; read-out: MIC50
HSV-2 (strain) Lyons = experiment: inhibition of cytopathic effect of HSV-2 strain Lyons; assay type: cell-based, herpes simplex virus type 2; conditions: Human alphaherpesvirus 2; Table 4; HSV-2 Lyons, PRK cells; read-out: MIC50
Parainfluenza 3 = experiment: inhibition of cytopathic effect of parainfluenza 3; assay type: cell-based; conditions: Table 3; Vero B cells; read-out: MIC50
Vesicular stomatitis = experiment: microbe, parasite or virus in culture; assay type: cell-based; conditions: read-out: MIC50
Moloney sarcoma = experiment: inhibition of Moloney sarcoma virus; assay type: cell-based, Moloney mouse sarcoma virus; conditions: Mus musculus; Table 3; MO cells; read-out: MIC50
Polio 1 = experiment: microbe, parasite or virus in culture; assay type: cell-based; conditions: HeLa, read-out: MIC50
HSV-1 (strain) F = experiment: inhibition of cytopathic effect of HSV-1 strain F; assay type: cell-based, herpes simplex virus type 1; conditions: Human alphaherpesvirus 1; Table 4; HSV-1 F, PRK cells; read-out: MIC50
in vitro [3] = conditions: rabbit, prk cells
HSV-1 (strain) McIntyre = experiment: inhibition of cytopathic effect of HSV-1 strain McIntyre; assay type: cell-based, herpes simplex virus type 1; conditions: Human alphaherpesvirus 1; Table 4; HSV-1 McIntyre, PRK cells; read-out: MIC50
Herpes simplex 2 (G) = experiment: inhibition of cytopathic effect of herpes simplex 2 (G); assay type: cell-based, herpes simplex virus type 2; conditions: Human alphaherpesvirus 2, PRK, PRK cells, read-out: MIC50
vaccinia virus (VV) = assay type: cell-based; conditions: PRK cells, average of two determinations
[4] = tested on: herpes simplex virus type 1 (HSV-1) (strain KOS); assay type: cell-based; conditions: PRK cells
CMV (strain) AD 169 = experiment: inhibition of CMV strain AD 169 in HEL cells; assay type: cell-based, cytomegalovirus; conditions: Human betaherpesvirus 5; Table 5; CMV AD 169, HEL cells; read-out: MIC50
VZV (strain) YS = experiment: microbe, parasite or virus in culture; assay type: cell-based, varicella-zoster virus; conditions: Human alphaherpesvirus 3, Table 5, HEL cells, read-out: MIC50
VZV (strain) OKa = experiment: microbe, parasite or virus in culture; assay type: cell-based, varicella-zoster virus; conditions: Human alphaherpesvirus 3, HEL, read-out: MIC50
[5] = tested on: HSV-1 (strain) TK^- B2006; experiment: inhibition of cytopathic effect of HSV-1 TK- strain B2006; assay type: cell-based, herpes simplex virus type 1; conditions: Human alphaherpesvirus 1, PRK, read-out: MIC50
VZV (strain) TK^- 07-1 = experiment: microbe, parasite or virus in culture; assay type: cell-based, varicella-zoster virus; conditions: Human alphaherpesvirus 3, HEL, read-out: MIC50
CMV (strain) Davis = experiment: inhibition of CMV strain Davis in HEL cells; assay type: cell-based, cytomegalovirus; conditions: Human betaherpesvirus 5, Table 5, read-out: MIC50
VZV (strain) TK^- YSR = experiment: microbe, parasite or virus in culture; assay type: cell-based, varicella-zoster virus; conditions: Human alphaherpesvirus 3, HEL, read-out: MIC50
TK^- herpes viruses = conditions: Prusoff et al.; cited from earlier work
in vitro [6] = conditions: rabbit, prk cells; remark: listed apart in the source
[7] = ID50 Leu incorporation, (3H-4,5)Leu
[8] = ID50 Urd incorporation, (3H-5)Urd
[9] = ID50 dThd incorporation, (3H-methyl) dThd
[10] = ID50 dUrd incorporation, (3H-1',2')dUrd
[11] = 48 h, 10 μg/ml (value in parentheses)

SMILES | EC50 [1] [µg/mL] | EC50 (Sindbis) [µg/mL] | EC50 (Vaccinia) [µg/mL] | EC50 (Herpes simplex I (KOS); Table 3) [µg/mL] | MIC50 (Herpes simplex I (KOS); Table 4, HSV-1 KOS) [µg/mL] | EC50 (HSV-2 (strain) 196) [µg/mL] | EC50 (Measles) [µg/mL] | EC50 (Coxsackie B4) [µg/mL] | IC50 [2, 7] [µg/mL] | IC50 [2, 8] [µg/mL] | EC50 (Reovirus) [µg/mL] | EC50 (HSV-2 (strain) Lyons) [µg/mL] | EC50 (Parainfluenza 3) [µg/mL] | EC50 (Vesicular stomatitis) [µg/mL] | EC50 (Polio 1) [µg/mL] | EC50 (HSV-1 (strain) F) [µg/mL] | MCC at 72 h (in vitro [3]) [µg/mL] | EC50 (HSV-1 (strain) McIntyre) [µg/mL] | EC50 (Herpes simplex 2 (G); Table 3) [µg/mL] | EC50 (Herpes simplex 2 (G); Table 4, HSV-2 G) [µg/mL] | other results
Nc1ncnc2c1ncn2CC(O)COCP(=O)(O)O (racemic) [No. 2, (RS)-9-(2-hydroxy-3-phosphonylmethoxypropyl)-adenine] | 7 (≈ 23.1 µM) | > 400 | 0.3 to 1 (≈ 0.989 to 3.3 µM) | 2 to 10 (≈ 6.6 to 33 µM) | 2 to 10 | 10 to 15 (≈ 33 to 49.5 µM) | > 20 | > 400 | > 400 | > 400 | > 200 | 10 to 15 (≈ 33 to 49.5 µM) | > 200 | > 400 | > 400 | 10 to 15 (≈ 33 to 49.5 µM) | > 400 | 10 to 15 (≈ 33 to 49.5 µM) | 10 to 15 (≈ 33 to 49.5 µM) | 10 to 15 (≈ 33 to 49.5 µM) | IC50 [2, 9]: 280 µg/mL (≈ 923 µM); IC50 [2, 10]: > 400 µg/mL; EC50 (Moloney sarcoma): 4.5 µg/mL (≈ 14.8 µM); Titer of VV (vaccinia virus (VV); 1 h, 100 μg/ml): 2.2 log10 PFU/ml; Titer of VV (vaccinia virus (VV); 24 h, 100 μg/ml): 2.2 log10 PFU/ml; Titer of VV (vaccinia virus (VV); [11]): < 1.3 log10 PFU/ml; Titer of VV (vaccinia virus (VV); 48 h, 100 μg/ml): 2.0 log10 PFU/ml; Titer of VV (vaccinia virus (VV); 72 h, 100 μg/ml): 1.8 log10 PFU/ml; Titer of HSV-1 ([4]; 24 h, 100 μg/ml): < 1.3 log10 PFU/ml; Titer of HSV-1 [4, 11]: < 6.0 log10 PFU/ml; Titer of HSV-1 ([4]; 48 h, 100 μg/ml): < 1.3 log10 PFU/ml
Nc1ncnc2c1ncn2C[C@H](O)COCP(=O)(O)O (racemic) [No. 3, (RS)-9-(2-hydroxy-3-phosphonylmethoxypropyl)-adenine] | 30 to 40 (≈ 98.9 to 132 µM) | > 400 | 15 to 30 (≈ 49.5 to 98.9 µM) | 70 to 150 (≈ 231 to 495 µM) | 70 to 150 | 70 to 150 (≈ 231 to 495 µM) | > 400 | > 400 | > 400 | > 400 | > 400 | 30 to 100 (≈ 98.9 to 330 µM) | > 400 | > 400 | > 400 | 70 to 150 (≈ 231 to 495 µM) | ≥ 200 | 150 (≈ 495 µM) | 30 to 150 (≈ 98.9 to 495 µM) | 30 to 150 (≈ 98.9 to 495 µM) | IC50 [2, 9]: > 400 µg/mL; IC50 [2, 10]: > 400 µg/mL
Nc1ncnc2c1ncn2C[C@H](O)CO [(S)-DHPA, 9-(S)-(2,3-dihydroxypropyl)adenine, reference compound] | – | > 400 | 50 (≈ 239 µM) | > 400 | – | – | 20 (≈ 95.6 µM) | 130 (≈ 621 µM) | > 400 | > 400 | 100 (≈ 478 µM) | – | 25 (≈ 119 µM) | 20 (≈ 95.6 µM) | > 400 | – | > 400 | – | > 400 | – | IC50 [2, 9]: 350 µg/mL (≈ 1670 µM); IC50 [2, 10]: > 400 µg/mL; EC50 (Moloney sarcoma): > 200 µg/mL; Titer of VV (vaccinia virus (VV); 1 h, 100 μg/ml): 2.0 log10 PFU/ml; Titer of VV (vaccinia virus (VV); 24 h, 100 μg/ml): 4.7 log10 PFU/ml; Titer of VV (vaccinia virus (VV); 48 h, 100 μg/ml): 5.2 log10 PFU/ml; Titer of VV (vaccinia virus (VV); 72 h, 100 μg/ml): 5.5 log10 PFU/ml; Titer of HSV-1 ([4]; 1 h, 100 μg/ml): 1.3 log10 PFU/ml; Titer of HSV-1 ([4]; 24 h, 100 μg/ml): 6.5 log10 PFU/ml; Titer of HSV-1 ([4]; 48 h, 100 μg/ml): 6.9 log10 PFU/ml; Titer of HSV-1 ([4]; 72 h, 100 μg/ml): 6.9 log10 PFU/ml
O=c1[nH]c(=O)n([C@H]2C[C@H](O)[C@@H](CO)O2)cc1/C=C/Br [BVDU, (E)-5-(2-bromovinyl)-2'-deoxyuridine, reference compound] | 70 (≈ 210 µM) | – | – | – | – | 70 (≈ 210 µM) | – | – | – | – | – | 7 (≈ 21 µM) | – | – | – | 0.02 (≈ 0.06 µM) | – | 0.02 (≈ 0.06 µM) | – | 2 (≈ 6 µM) | EC50 (CMV (strain) AD 169): 200 µg/mL (≈ 600 µM); EC50 (VZV (strain) YS): 6 ng/mL (≈ 0.018 µM); EC50 (Herpes simplex I (KOS); Table 4, HSV-1 KOS): 0.02 µg/mL (≈ 0.06 µM); EC50 (VZV (strain) OKa): 7 ng/mL (≈ 0.021 µM); EC50 [5]: > 200 µg/mL; EC50 (VZV (strain) TK^- 07-1): > 400 µg/mL; EC50 (CMV (strain) Davis): 300 µg/mL (≈ 901 µM); EC50 (VZV (strain) TK^- YSR): > 400 µg/mL; activity against TK^- herpes viruses (in words) (TK^- herpes viruses): inactive
O=c1[nH]c(=O)n([C@H]2C[C@H](O)[C@@H](CO)O2)cc1I [IDU, 5-iodo-2'-deoxyuridine, reference compound] | – | – | – | – | – | 2 (≈ 5.65 µM) | – | – | – | – | – | 0.2 (≈ 0.565 µM) | – | – | – | 0.2 (≈ 0.565 µM) | – | 0.2 (≈ 0.565 µM) | – | 0.2 (≈ 0.565 µM) | EC50 (Herpes simplex I (KOS); Table 4, HSV-1 KOS): 0.2 µg/mL (≈ 0.565 µM)
Nc1ncnc2c1ncn2CCOCP(=O)(O)O [No. 6, 9-(2-phosphonylmethoxyethyl)adenine] | 7 (≈ 25.6 µM) | > 400 | 300 (≈ 1100 µM) | 15 to 30 (≈ 54.9 to 110 µM) | 15 to 30 | 15 (≈ 54.9 µM) | > 400 | > 200 | – | – | > 400 | 15 (≈ 54.9 µM) | > 400 | > 400 | > 400 | – | ≥ 200 | 30 (≈ 110 µM) | 7 (≈ 25.6 µM) | – | IC50 (in vitro [6]; ID50 Leu incorporation): > 400 µg/mL; IC50 (in vitro [6]; ID50 Urd incorporation): > 400 µg/mL; IC50 (in vitro [6]; ID50 dThd incorporation): 242 µg/mL (≈ 886 µM); IC50 (in vitro [6]; ID50 dUrd incorporation): 114 µg/mL (≈ 417 µM); EC50 [5]: 3 µg/mL (≈ 11 µM); EC50 (Moloney sarcoma): 0.67 µg/mL (≈ 2.45 µM); Titer of VV (vaccinia virus (VV); 48 h, 100 μg/ml): 5.54 log10 PFU/ml; Titer of HSV-1 ([4]; 24 h, 100 μg/ml): < 1.3 log10 PFU/ml; Titer of HSV-1 [4, 11]: 6.36 log10 PFU/ml; Titer of HSV-1 ([4]; 48 h, 100 μg/ml): 3.34 log10 PFU/ml
